Data published in patent EP4173633B1, “PRODUCTS COMPRISING ESSENTIAL OIL OR EXTRACT WITH PHENOLIC COMPOUNDS OBTAINED FROM THE RESIDUAL WATER OF THE HYDRODISTILLATION OF EUCALYPTUS GLOBULUS LEAVES AND THEIR USES” (RAIZ - Instituto De Investigação Da Floresta E Papel, priority 2021, dated 2023).

Test system: NIH/3T3 fibroblasts
Assay: β-gal activity associated with senescence, etoposide-induced
Format: cell-based, mouse
Settings: 12.5 µM etoposide 24 h alone; control 8.86%
Method: HaCaT and NIH/3T3 cells were seeded in 12-well plates at a density of 1.5 x 10^5 or 2.5 x 10^4 cells/well, respectively, and adhered for 24 h. Cell senescence was then induced in the HaCaT and NIH/3T3 lines by exposure to 100 µM etoposide (Sigma-Aldrich, St. Louis, MO, USA) for 72 h or 12.5 µM etoposide for 24 h, respectively. After the incubation period, senescent HaCaT and NIH/3T3 cells were treated in the absence or presence of EO (0.16 mg/mL) or HRW (0.8 µg/mL) for 24 h. In the case of NIH/3T3 cells, they were further treated for 24 h with bacterial cellulose membrane extract impregnated with glycerol and 2 µg/cm2 of extract with phenolic compounds obtained from wastewater from hydrodistillation (BC-G-HRW2), prepared from sterile samples (10 cm 2) incubated in 10 ml of DMEM exposure medium. As a control, cells not treated with etoposide were incubated with DMEM exposure medium or similarly prepared BC-G and BC-G-HRW2 membrane extracts. […] Finally, senescent cells were quantified using an inverted microscope (Carl Zeiss, Oberkochen, Germany) at 20x magnification, determining the % of β-gal-positive cells in randomly selected fields in four different images obtained in at least 3 independent experiments performed in duplicate.

COc1cc([C@@H]2c3cc4c(cc3[C@@H](O[C@@H]3O[C@@H]5CO[C@@H](C)O[C@H]5[C@H](O)[C@H]3O)[C@H]3COC(=O)[C@H]23)OCO4)cc(OC)c1O [etoposide]
number of β-gal-positive associated senescent NIH/3T3 cells: 44.11%
